Results taken from US20070141091A1, “BIGUANIDE OINTMENT AND METHOD OF TREATMENT AND PREVENTION OF INFECTIONS” (priority 2005, published 2007).

Assays:
[1] = tested on: Cytomegalovirus; assay: Viral Suspension Assay, Cytomegalovirus; format: cell-based
Protocol: (§1) The Viral Suspension Assay was used to evaluate the antiviral properties of Alexidine against Adenovirus Type-4, Adenovirus Type-8 and Adenovirus Type-19 and Cytomegalovirus when exposed in suspension for 1, 2, 5, and 10 minutes. The presence of virus (infectivity) was determined by monitoring the virus specific cytopathic effect (CPE) on an appropriate indicator cell line, rabbit kidney. Results are reported as Percent (%) Reduction in virus titer as compared to the corresponding virus control titer (Table 1). The titer of the virus controls were 7.5 log10 following the one minute exposure time; 7.0 log10 following the two minute exposure time; and 7.75 log10 following both the five and ten minute exposure times.

[2] = tested on: Herpes simplex virus type 1; assay: HSV-1 Viral Suspension Assay; format: cell-based
Protocol: as §1, with “Herpes simplex virus type 1” for “Adenovirus Type-4, Adenovirus Type-8 and Adenovirus Type-19 and Cytomegalovirus”

[3] = tested on: Adenovirus Type-8; assay: Viral Suspension Assay, Adenovirus Type-8; format: cell-based
Protocol: as §1

[4] = tested on: Adenovirus Type-19; assay: Viral Suspension Assay, Adenovirus Type-19; format: cell-based; conditions: for Percent Reduction (%) Adenovirus type 19: 1, 2, 5 and 10 minutes exposure
Protocol: as §1

[5] = tested on: Adenovirus Type-4; assay: Viral Suspension Assay, Adenovirus Type-4; format: cell-based
Protocol: as §1

[6] = tested on: Acanthamoeba keratitis; conditions: in combination with propamidine isothionate (Brolene), hexamidine (Desomodine), or neomycin; cited from earlier work
[7] = tested on: experimental Aspergillus keratitis; conditions: 0.02%; cited from earlier work
[8] = tested on: Acanthamoeba keratitis; conditions: bilateral case, one treatment per eye; cited from earlier work
[9] = Alexidine 30 ppm, 1 minute exposure
[10] = Alexidine 30 ppm, 2 minutes exposure
[11] = Alexidine 30 ppm, 10 minutes exposure
[12] = Alexidine 99 ppm, 1 minute exposure
[13] = Alexidine 99 ppm, 2 minutes exposure
[14] = Alexidine 99 ppm, 5 minutes exposure
[15] = Alexidine 99 ppm, 10 minutes exposure
[16] = Alexidine 30 ppm, 5 minutes exposure

**Q.** Which results are given for CCCCC(CC)CNC(=N)NC(=N)NCCCCCCNC(=N)NC(=N)NCC(CC)CCCC (centres unmarked) [Alexidine, 1,1′-Hexamethylene-bis [5-(2-ethylhexyl)biguanide]]?
**A.** Percent Reduction (%) Cytomegalovirus [1, 9]: 43.8%; Percent Reduction (%) Cytomegalovirus [1, 10]: 68.4%; Percent Reduction (%) Cytomegalovirus [1, 11]: 43.8%; Percent Reduction (%) Cytomegalovirus [1, 12]: 98.2%; Percent Reduction (%) Cytomegalovirus [1, 13]: 99.0%; Percent Reduction (%) Cytomegalovirus [1, 14]: 99.8%; Percent Reduction (%) Cytomegalovirus [1, 15]: 99.98%; effectiveness against Cytomegalovirus, in words ([1]; at both 30 ppm and 99 ppm): somewhat effective; antimicrobial potency against Herpes Simplex-1, summary in words [2]: potent antimicrobial agent; Percent Reduction of Herpes simplex virus type 1 ([2]; Alexidine 30 ppm, 1 minute exposure in suspension, vs virus control titer): 99.99%; Percent Reduction of Herpes simplex virus type 1 [2, 10]: 99.99%; Percent Reduction of Herpes simplex virus type 1 [2, 16]: 99.9994%; Percent Reduction of Herpes simplex virus type 1 [2, 11]: ≧100%; Percent Reduction of Herpes simplex virus type 1 [2, 12]: 99.999%; Percent Reduction of Herpes simplex virus type 1 [2, 13]: 99.994%; Percent Reduction of Herpes simplex virus type 1 [2, 14]: 99.9999%; Percent Reduction of Herpes simplex virus type 1 [2, 15]: ≧100%; effectiveness against herpes simplex type-1 virus (HSV-1), in words ([2]; at both 30 ppm and 99 ppm): effective agents; Percent Reduction (%) Adenovirus type 8 [3, 9]: 96.8%; Percent Reduction (%) Adenovirus type 8 [3, 10]: 94.4%; Percent Reduction (%) Adenovirus type 8 [3, 16]: 82.2%; Percent Reduction (%) Adenovirus type 8 [3, 11]: 90.0%; Percent Reduction (%) Adenovirus type 8 [3, 12]: 82.2%; Percent Reduction (%) Adenovirus type 8 [3, 13]: 82.2%; Percent Reduction (%) Adenovirus type 8 [3, 14]: 90.0%; Percent Reduction (%) Adenovirus type 8 [3, 15]: 90.0%; effectiveness against Adenovirus Type-8, in words ([3]; at both 30 ppm and 99 ppm): somewhat effective; effectiveness against the tested strain of Adenovirus Type-19, in words [4]: did not appear to be effective; Percent Reduction (%) Adenovirus type 19 ([4]; Alexidine 30 ppm): No reduction; Percent Reduction (%) Adenovirus type 19 ([4]; Alexidine 99 ppm): No reduction; Percent Reduction (%) Adenovirus type 4 [5, 9]: 43.8%; Percent Reduction (%) Adenovirus type 4 [5, 16]: 82.2%; Percent Reduction (%) Adenovirus type 4 [5, 11]: 68.4%; Percent Reduction (%) Adenovirus type 4 [5, 12]: 68.4%; Percent Reduction (%) Adenovirus type 4 [5, 14]: 43.8%; Percent Reduction (%) Adenovirus type 4 [5, 15]: 68.4%; effectiveness against Adenovirus Type-4, in words ([5]; at both 30 ppm and 99 ppm): somewhat effective

**Q.** For “poly(hexamethylene biguanide) [polyhexamethylene biguanide]”, which “response of Acanthamoeba keratitis to treatment” value [6] is on record?
**A.** Its value is “respond well”.

**Q.** What about the “efficacy in experimental Aspergillus keratitis” value [7] of the same compound?
**A.** Its value is “moderately effective”.

**Q.** What about the “treatment of recurrences of Acanthamoeba keratitis” value [8] of the same compound?
**A.** Its value is “successfully treated”.

**Q.** With N=C(NCCCCCCNC(=N)NC(=N)Nc1ccc(Cl)cc1)NC(=N)Nc1ccc(Cl)cc1 [chlorhexidine gluconate, 1,1′-hexamethylene-bis[5-(p-chlorophenyl)biguanide]] as the compound, how does the “response of Acanthamoeba keratitis to treatment” value [6] read?
**A.** The value was “respond well”.
